# Reference: patent US20230150974A1 (Foghorn Therapeutics Inc., priority 2020, published 2023)
# Key:
# HiBiT-BRM = target: T1, HiBiT-BRM (Homo sapiens, UniProt P51531); experiment: HiBiT-BRM cell-based degradation assay (Nano-Glo HiBiT Lytic Detection); conditions: HeLa cells expressing HiBiT-BRM, 24 h; for DC50: read-out: BRM HiBit Degradation IC50
# T1 construct: expressed in transfected cells
# Outline: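 HeLa cells stably expressing HiBiT-tagged BRM were treated for 24 h, then lysed with LgBiT-containing Nano-Glo reagent and luminescence read. % degradation scaled between DMSO (high control) and 2 μM reference BRM/BRG1 degrader (low control).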
# HiBit-BRG1 = target: T2, HiBit-BRG1 (Homo sapiens, UniProt P51532); experiment: HiBit-BRG1 cell-based degradation assay (Nano-Glo HiBiT Lytic Detection); conditions: HeLa cells expressing HiBit-BRG1 and LgBit, 24 h; for DC50: read-out: BRG1 HiBit Degradation IC50; for Dmax: read-out: BRG1 HiBit Degradation Maximum (%)
# T2 construct: expressed in transfected cells
# T2 sequence (P51532 whole entry): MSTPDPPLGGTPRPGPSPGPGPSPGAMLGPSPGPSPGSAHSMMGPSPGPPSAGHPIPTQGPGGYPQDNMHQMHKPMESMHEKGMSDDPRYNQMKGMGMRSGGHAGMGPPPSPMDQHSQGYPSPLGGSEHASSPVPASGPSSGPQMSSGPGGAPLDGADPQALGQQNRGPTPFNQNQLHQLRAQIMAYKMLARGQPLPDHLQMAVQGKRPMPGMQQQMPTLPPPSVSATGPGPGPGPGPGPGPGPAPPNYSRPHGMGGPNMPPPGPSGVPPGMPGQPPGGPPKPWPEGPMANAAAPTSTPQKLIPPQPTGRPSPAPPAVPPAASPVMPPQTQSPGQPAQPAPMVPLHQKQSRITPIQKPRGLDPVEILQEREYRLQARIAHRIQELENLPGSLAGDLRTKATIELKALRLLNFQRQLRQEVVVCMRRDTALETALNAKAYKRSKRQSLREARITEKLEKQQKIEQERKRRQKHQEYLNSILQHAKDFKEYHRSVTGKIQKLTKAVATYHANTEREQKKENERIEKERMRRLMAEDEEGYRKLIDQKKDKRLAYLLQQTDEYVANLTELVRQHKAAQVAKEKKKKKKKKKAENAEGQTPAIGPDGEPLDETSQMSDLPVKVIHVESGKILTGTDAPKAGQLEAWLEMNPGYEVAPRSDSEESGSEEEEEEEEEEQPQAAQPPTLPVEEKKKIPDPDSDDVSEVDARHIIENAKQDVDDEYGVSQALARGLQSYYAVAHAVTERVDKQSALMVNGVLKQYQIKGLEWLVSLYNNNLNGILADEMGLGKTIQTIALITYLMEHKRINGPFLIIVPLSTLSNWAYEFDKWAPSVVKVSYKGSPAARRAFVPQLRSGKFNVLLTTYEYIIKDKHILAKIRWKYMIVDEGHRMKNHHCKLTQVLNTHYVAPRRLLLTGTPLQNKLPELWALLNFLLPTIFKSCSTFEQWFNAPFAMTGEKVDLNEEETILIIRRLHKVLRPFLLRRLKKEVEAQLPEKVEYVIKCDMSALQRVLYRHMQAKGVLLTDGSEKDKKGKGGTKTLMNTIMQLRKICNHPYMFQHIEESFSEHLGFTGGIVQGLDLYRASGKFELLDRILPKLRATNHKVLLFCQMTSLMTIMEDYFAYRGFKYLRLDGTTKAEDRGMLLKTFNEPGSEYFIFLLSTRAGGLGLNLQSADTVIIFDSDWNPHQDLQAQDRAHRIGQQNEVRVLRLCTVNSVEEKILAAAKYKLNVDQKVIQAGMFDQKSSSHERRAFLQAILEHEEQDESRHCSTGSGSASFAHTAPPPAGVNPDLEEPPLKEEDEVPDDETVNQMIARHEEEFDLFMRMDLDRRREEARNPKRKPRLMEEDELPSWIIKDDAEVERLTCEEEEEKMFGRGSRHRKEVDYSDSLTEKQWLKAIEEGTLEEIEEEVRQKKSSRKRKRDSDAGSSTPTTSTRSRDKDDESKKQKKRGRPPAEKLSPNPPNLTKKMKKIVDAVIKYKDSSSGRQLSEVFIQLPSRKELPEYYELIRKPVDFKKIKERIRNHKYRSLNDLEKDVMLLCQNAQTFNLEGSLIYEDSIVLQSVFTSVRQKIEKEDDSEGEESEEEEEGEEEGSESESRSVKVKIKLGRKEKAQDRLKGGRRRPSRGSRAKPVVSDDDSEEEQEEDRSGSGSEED
# Outline: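 Luminescence from Nano-Glo HiBiT lytic detection, read after 24 h compound exposure, scored degradation in a stable HeLa HiBiT-BRG1/LgBit line seeded at 5000 cells/well. DMSO wells defined 0% and 2 μM known BRM/BRG1 degrader wells defined full degradation.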
# T1 sequence (P51531 whole entry): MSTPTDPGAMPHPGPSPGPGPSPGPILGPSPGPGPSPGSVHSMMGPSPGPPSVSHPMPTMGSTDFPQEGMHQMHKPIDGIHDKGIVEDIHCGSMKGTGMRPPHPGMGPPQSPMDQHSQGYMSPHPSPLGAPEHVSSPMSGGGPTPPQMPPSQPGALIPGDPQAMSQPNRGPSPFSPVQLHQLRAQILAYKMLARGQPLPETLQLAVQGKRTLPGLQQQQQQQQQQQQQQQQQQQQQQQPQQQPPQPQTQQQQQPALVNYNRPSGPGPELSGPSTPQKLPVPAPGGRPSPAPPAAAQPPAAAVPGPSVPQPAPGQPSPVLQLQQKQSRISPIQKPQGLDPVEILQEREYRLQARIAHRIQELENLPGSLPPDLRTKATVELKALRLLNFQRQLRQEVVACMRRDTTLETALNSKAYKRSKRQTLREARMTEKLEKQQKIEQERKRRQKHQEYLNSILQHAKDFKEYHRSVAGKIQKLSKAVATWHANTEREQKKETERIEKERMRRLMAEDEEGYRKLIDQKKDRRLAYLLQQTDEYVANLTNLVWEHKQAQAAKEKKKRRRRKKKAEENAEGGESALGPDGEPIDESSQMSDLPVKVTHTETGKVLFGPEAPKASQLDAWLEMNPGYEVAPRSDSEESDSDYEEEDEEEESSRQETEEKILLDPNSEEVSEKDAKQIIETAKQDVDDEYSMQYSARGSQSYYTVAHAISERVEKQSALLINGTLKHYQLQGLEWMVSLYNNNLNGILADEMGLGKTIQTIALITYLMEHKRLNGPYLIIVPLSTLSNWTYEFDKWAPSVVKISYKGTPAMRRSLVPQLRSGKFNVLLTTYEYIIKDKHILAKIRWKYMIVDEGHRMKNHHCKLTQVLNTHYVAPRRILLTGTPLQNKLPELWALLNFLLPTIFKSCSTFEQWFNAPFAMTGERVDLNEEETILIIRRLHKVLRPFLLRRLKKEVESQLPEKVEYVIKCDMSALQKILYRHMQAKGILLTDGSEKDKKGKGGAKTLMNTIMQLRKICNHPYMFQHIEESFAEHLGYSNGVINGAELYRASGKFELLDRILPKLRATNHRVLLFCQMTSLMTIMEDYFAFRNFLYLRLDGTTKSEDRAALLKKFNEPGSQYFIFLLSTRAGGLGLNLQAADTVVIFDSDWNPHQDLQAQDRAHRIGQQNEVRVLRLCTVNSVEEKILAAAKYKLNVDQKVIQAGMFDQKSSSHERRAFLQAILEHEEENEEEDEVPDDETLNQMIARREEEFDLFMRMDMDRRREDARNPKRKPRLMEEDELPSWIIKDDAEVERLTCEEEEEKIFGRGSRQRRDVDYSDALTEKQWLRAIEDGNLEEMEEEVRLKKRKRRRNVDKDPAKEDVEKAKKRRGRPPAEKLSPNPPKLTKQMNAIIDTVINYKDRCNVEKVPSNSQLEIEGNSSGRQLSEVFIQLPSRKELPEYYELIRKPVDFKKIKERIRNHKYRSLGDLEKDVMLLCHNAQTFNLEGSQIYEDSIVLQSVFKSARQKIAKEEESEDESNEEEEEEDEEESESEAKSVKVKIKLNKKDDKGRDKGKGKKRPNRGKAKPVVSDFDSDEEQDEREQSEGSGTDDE
DC50 (HiBiT-BRM) [nM],DC50 (HiBit-BRG1) [nM],Dmax (HiBit-BRG1) [%],Compound,BRM HiBit Degradation Maximum (%) (HiBiT-BRM)
> 100,> 1000,< 50,"Cc1ncsc1-c1ccc([C@H](C)NC(=O)[C@@H]2C[C@@H](O)CN2C(=O)[C@@H](c2cc(OCCNCCCCC(=O)NCc3ccc(CCOc4cc(-c5ccccc5O)nnc4N)cc3)no2)C(C)C)cc1 [Compound 218, (2S,4R)-1-((R)-2-(3-(2-((5-((4-(2-((3-amino-6-(2-hydroxyphenyl)pyridazin-4-yl)oxy)ethyl)benzyl)amino)-5-oxopentyl)amino)ethoxy)isoxazol-5-yl)-3-methylbutanoyl)-4-hydroxy-N-((S)-1-(4-(4-methylthiazol-5-yl)phenyl)ethyl)pyrrolidine-2-carboxamide]",B (“B” indicates maximum degradation ≥50%)
> 1000,> 1000,< 50,"Cc1ncsc1-c1ccc(CNC(=O)[C@@H]2C[C@@H](O)CN2C(=O)[C@@H](NC(=O)CCN2CC3=C(C2)CN(C(=O)c2ccc(CCOc4cc(-c5ccccc5O)nnc4N)cc2)C3)C(C)(C)C)cc1 [Compound 219, (2S,4R)-1-((S)-2-(3-(5-(4-(2-((3-amino-6-(2-hydroxyphenyl)pyridazin-4-yl)oxy)ethyl)benzoyl)-3,4,5,6-tetrahydropyrrolo[3,4-c]pyrrol-2(1H)-yl)propanamido)-3,3-dimethylbutanoyl)-4-hydroxy-N-(4-(4-methylthiazol-5-yl)benzyl)pyrrolidine-2-carboxamide]",B (“B” indicates maximum degradation ≥50%)
> 100,> 100,> 75,"Cc1ncsc1-c1ccc([C@H](C)NC(=O)[C@@H]2C[C@@H](O)CN2C(=O)[C@@H](c2cc(OCCN3CC(C4CN(C(=O)c5ccc(CCOc6cc(-c7ccccc7O)nnc6N)cc5)C4)C3)no2)C(C)C)cc1 [Compound 222, (2S,4R)-1-((R)-2-(3-(2-(1′-(4-(2-((3-amino-6-(2-hydroxyphenyl)pyridazin-4-yl)oxy)ethyl)benzoyl)-[3,3'-biazetidin]-1-yl)ethoxy)isoxazol-5-yl)-3-methylbutanoyl)-4-hydroxy-N-((S)-1-(4-(4-methylthiazol-5-yl)phenyl)ethyl)pyrrolidine-2-carboxamide]",A (“A” indicates maximum degradation ≥75%)

Compound,DC50 (HiBiT-BRM) [nM],DC50 (HiBit-BRG1) [nM],Dmax (HiBit-BRG1) [%],BRM HiBit Degradation Maximum (%) (HiBiT-BRM)
"Cc1ncsc1-c1ccc([C@H](C)NC(=O)[C@@H]2C[C@@H](O)CN2C(=O)[C@@H](c2cc(OCCN3C[C@H]4CC[C@@H](C3)N4C(=O)c3ccc(CCOc4cc(-c5ccccc5O)nnc4N)cc3)no2)C(C)C)cc1 [Compound 220, (2S,4R)-1-((2R)-2-(3-(2-(8-(4-(2-((3-amino-6-(2-hydroxyphenyl)pyridazin-4-yl)oxy)ethyl)benzoyl)-3,8-diazabicyclo[3.2.1]octan-3-yl)ethoxy)isoxazol-5-yl)-3-methylbutanoyl)-4-hydroxy-N-((S)-1-(4-(4-methylthiazol-5-yl)phenyl)ethyl)pyrrolidine-2-carboxamide]",< 10,> 10,> 75,A (“A” indicates maximum degradation ≥75%)
"Cc1ncsc1-c1ccc([C@H](C)NC(=O)[C@@H]2C[C@@H](O)CN2C(=O)[C@@H](c2cc(OCCN3[C@@H]4CC[C@H]3CN(C(=O)c3ccc(CCOc5cc(-c6ccccc6O)nnc5N)cc3)C4)no2)C(C)C)cc1 [Compound 221, (2S,4R)-1-[(2R)-2-[3-(2-[3-[4-(2-[[3-amino-6-(2-hydroxyphenyl)pyridazin-4-yl]oxy]ethyl)benzoyl]-3,8-diazabicyclo[3.2.1]octan-8-yl]ethoxy)-1,2-oxazol-5-yl]-3-methylbutanoyl]-4-hydroxy-N-[(1S)-1-[4-(4-methyl-1,3-thiazol-5-yl)phenyl]ethyl]pyrrolidine-2-carboxamide]",> 10,< 10,> 75,A (“A” indicates maximum degradation ≥75%)
